Read-outs that look alike come from different tables or passages of the source.

The values that follow come from publication doi:10.1101/2024.08.13.607785v1 (biorxiv, 2024).

Common to all, as to assay: biochemical
What all share (set-up): species or system human cell line lysate

Test [1] has as its target Mitogen-activated protein kinase kinase kinase 12 ; MAP3K12 ; Q12852 (Homo sapiens, UniProt Q12852).
The target of test [2] is Serine/threonine-protein kinase PDIK1L ; PDIK1L ; Q8N165 (Homo sapiens, UniProt Q8N165).
Test [3] has as its target Casein kinase II subunit alpha ; CSNK2A1 ; P68400 (Homo sapiens, UniProt P68400).
Test [4] addresses Aurora kinase C ; AURKC ; Q9UQB9 (Homo sapiens, UniProt Q9UQB9).
Test [5] addresses Mitogen-activated protein kinase 6 ; MAPK6 ; Q16659 (Homo sapiens, UniProt Q16659).
In test [6] the target is Serine/threonine-protein kinase Chk2 ; CHEK2 ; O96017 (Homo sapiens, UniProt O96017).
Test [7] deals with T1, Cyclin-G-associated kinase ; GAK ; O14976 (Homo sapiens, UniProt O14976).
T1 sequence (O14976 1-1311): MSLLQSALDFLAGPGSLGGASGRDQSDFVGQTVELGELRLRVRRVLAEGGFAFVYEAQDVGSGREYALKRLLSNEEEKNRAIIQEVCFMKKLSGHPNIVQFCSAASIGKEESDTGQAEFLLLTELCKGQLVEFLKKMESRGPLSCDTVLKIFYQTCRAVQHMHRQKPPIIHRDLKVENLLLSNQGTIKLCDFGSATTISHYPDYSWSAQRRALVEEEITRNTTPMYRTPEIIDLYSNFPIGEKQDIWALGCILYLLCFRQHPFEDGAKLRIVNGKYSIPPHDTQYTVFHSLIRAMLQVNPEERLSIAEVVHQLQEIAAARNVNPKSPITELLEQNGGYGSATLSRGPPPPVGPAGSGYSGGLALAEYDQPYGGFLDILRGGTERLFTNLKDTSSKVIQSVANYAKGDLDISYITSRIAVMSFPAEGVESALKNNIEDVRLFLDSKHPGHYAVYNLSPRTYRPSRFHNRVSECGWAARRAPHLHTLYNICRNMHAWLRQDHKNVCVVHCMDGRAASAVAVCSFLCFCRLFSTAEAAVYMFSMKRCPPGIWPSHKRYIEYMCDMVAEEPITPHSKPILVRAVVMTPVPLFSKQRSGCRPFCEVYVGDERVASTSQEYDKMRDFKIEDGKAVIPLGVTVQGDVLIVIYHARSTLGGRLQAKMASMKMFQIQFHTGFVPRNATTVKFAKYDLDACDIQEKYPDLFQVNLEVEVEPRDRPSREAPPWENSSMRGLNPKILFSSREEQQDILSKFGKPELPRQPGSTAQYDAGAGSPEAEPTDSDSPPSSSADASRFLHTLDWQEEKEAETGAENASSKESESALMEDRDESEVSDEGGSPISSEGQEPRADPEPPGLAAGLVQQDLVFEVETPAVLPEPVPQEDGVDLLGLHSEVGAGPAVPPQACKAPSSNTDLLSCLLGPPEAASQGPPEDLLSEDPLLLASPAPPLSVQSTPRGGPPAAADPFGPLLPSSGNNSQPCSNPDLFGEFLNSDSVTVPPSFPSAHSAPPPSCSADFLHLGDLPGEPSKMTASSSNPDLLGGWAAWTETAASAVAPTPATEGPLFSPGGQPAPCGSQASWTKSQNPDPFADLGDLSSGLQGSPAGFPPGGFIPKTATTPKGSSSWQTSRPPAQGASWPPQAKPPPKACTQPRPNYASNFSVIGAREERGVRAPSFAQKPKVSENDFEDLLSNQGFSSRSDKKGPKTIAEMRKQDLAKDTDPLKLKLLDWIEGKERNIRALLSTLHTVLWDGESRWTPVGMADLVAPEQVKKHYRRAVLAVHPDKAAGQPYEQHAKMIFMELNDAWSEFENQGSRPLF

For test [8], the target named is Serine/threonine-protein kinase BRSK2 ; BRSK2 ; Q8IWQ3 (Homo sapiens, UniProt Q8IWQ3).
For test [9], the target named is Serine/threonine-protein kinase TAO3 ; TAOK3 ; Q9H2K8 (Homo sapiens, UniProt Q9H2K8).
Test [10] deals with Mitogen-activated protein kinase 10 ; MAPK10 ; P53779 (Homo sapiens, UniProt P53779).
Test [11] concerns the target Beta-adrenergic receptor kinase 1 ; GRK2 ; P25098 (Homo sapiens, UniProt P25098).
For test [12], the target named is Serine/threonine-protein kinase 17B ; STK17B ; O94768 (Homo sapiens, UniProt O94768).
For test [13], the target named is Mitogen-activated protein kinase kinase kinase 11 ; MAP3K11 ; Q16584 (Homo sapiens, UniProt Q16584).
The target in test [14] is Serine/threonine-protein kinase 4 ; STK4 ; Q13043 (Homo sapiens, UniProt Q13043).
[15] abbreviates: read-out: BAY-1251152 (10 µM) / %Intensity relative to DMSO.
Setting [16] is: read-out: BAY-1143572 (10 µM) / %Intensity relative to DMSO.

Sequence of Serine/threonine-protein kinase 4 ; STK4 ; Q13043 (Q13043 whole entry, one chain of several): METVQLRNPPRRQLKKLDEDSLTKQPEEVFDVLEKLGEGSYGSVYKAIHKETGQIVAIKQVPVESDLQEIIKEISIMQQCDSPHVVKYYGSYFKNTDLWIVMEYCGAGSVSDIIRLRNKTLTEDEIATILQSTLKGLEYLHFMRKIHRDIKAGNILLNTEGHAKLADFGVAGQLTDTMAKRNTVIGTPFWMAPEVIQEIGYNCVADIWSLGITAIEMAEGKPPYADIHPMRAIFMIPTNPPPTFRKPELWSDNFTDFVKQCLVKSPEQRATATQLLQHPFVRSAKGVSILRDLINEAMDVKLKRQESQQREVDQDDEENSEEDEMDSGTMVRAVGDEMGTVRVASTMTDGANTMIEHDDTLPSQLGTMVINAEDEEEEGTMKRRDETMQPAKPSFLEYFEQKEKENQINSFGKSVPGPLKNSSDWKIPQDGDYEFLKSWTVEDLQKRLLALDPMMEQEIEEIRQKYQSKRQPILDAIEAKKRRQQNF
Sequence of Aurora kinase C ; AURKC ; Q9UQB9 (Q9UQB9 whole entry): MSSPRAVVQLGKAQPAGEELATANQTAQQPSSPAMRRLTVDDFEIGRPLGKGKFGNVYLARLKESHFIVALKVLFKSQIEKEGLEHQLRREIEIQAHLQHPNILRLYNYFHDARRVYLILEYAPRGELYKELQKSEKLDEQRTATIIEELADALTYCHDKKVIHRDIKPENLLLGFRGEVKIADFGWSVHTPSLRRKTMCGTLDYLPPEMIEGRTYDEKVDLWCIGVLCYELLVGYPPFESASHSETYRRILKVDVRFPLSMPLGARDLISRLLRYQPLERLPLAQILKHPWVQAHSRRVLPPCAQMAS
Sequence of Beta-adrenergic receptor kinase 1 ; GRK2 ; P25098 (P25098 whole entry): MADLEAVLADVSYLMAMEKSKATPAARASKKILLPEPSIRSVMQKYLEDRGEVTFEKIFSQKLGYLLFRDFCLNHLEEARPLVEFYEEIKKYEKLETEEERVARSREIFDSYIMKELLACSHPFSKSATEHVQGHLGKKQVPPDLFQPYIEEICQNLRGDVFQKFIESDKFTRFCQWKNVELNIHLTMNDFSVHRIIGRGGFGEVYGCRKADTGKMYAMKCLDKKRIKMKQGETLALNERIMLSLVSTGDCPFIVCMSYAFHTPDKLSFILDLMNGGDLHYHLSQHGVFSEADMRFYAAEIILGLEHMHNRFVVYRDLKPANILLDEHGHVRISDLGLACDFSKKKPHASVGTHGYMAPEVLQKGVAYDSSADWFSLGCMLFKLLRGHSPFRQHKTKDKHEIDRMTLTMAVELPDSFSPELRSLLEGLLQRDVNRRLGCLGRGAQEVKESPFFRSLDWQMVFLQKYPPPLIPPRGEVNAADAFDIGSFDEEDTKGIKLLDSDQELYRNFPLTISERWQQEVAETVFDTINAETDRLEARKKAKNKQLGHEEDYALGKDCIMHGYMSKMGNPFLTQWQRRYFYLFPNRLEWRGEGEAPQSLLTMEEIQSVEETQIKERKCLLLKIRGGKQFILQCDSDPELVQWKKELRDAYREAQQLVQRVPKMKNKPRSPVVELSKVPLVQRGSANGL
Sequence of Mitogen-activated protein kinase 6 ; MAPK6 ; Q16659 (Q16659 whole entry): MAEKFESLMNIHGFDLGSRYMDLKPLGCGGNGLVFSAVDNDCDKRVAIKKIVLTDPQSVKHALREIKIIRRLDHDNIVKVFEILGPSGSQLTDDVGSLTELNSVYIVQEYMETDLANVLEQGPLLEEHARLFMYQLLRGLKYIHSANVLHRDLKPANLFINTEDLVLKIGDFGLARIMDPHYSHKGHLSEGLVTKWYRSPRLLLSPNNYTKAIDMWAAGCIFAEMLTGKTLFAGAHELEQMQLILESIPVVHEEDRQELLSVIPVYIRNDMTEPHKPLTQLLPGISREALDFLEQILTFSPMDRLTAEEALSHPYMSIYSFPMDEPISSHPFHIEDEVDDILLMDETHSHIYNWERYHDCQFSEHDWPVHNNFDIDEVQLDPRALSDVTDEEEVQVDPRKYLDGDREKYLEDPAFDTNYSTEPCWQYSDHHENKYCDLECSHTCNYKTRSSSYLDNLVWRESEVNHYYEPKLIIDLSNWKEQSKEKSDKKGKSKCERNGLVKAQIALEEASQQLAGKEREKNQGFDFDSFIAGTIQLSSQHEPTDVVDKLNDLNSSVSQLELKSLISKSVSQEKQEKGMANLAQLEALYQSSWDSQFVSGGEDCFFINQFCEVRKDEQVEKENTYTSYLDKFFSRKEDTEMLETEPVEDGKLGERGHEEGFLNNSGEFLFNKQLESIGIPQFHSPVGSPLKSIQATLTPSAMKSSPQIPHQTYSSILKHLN
Sequence of Serine/threonine-protein kinase PDIK1L ; PDIK1L ; Q8N165 (Q8N165 whole entry, one chain of several): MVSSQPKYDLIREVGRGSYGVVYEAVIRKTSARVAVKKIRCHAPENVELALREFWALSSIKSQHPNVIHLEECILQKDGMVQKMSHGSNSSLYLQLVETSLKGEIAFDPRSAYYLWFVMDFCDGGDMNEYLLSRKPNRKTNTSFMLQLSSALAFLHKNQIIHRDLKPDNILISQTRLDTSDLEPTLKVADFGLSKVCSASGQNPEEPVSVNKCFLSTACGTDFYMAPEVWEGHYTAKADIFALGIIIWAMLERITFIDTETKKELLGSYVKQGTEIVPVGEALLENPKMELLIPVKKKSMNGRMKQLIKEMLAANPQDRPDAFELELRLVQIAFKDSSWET
Sequence of Serine/threonine-protein kinase 17B ; STK17B ; O94768 (O94768 whole entry, one chain of several): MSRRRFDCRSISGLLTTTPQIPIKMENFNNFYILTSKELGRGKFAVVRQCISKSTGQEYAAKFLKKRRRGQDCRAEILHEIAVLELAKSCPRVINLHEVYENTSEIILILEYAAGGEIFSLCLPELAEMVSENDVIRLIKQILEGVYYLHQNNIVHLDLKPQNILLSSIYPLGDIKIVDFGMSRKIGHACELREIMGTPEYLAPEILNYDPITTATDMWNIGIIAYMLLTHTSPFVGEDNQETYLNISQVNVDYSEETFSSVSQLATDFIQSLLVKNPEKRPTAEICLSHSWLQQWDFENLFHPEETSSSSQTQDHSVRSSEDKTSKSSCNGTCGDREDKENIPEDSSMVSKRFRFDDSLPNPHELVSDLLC
Sequence of Casein kinase II subunit alpha ; CSNK2A1 ; P68400 (P68400 whole entry, one chain of several): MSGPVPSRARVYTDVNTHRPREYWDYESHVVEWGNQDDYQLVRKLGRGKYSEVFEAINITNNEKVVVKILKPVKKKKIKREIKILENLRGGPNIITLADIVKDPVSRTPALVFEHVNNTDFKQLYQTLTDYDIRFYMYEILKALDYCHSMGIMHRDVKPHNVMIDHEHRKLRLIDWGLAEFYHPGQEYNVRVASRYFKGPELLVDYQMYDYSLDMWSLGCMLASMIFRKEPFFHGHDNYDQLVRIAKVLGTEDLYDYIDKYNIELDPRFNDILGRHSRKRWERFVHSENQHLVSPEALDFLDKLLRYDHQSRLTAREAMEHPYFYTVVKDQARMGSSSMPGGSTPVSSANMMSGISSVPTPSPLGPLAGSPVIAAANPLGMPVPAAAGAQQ
Sequence of Serine/threonine-protein kinase TAO3 ; TAOK3 ; Q9H2K8 (Q9H2K8 whole entry, one chain of several): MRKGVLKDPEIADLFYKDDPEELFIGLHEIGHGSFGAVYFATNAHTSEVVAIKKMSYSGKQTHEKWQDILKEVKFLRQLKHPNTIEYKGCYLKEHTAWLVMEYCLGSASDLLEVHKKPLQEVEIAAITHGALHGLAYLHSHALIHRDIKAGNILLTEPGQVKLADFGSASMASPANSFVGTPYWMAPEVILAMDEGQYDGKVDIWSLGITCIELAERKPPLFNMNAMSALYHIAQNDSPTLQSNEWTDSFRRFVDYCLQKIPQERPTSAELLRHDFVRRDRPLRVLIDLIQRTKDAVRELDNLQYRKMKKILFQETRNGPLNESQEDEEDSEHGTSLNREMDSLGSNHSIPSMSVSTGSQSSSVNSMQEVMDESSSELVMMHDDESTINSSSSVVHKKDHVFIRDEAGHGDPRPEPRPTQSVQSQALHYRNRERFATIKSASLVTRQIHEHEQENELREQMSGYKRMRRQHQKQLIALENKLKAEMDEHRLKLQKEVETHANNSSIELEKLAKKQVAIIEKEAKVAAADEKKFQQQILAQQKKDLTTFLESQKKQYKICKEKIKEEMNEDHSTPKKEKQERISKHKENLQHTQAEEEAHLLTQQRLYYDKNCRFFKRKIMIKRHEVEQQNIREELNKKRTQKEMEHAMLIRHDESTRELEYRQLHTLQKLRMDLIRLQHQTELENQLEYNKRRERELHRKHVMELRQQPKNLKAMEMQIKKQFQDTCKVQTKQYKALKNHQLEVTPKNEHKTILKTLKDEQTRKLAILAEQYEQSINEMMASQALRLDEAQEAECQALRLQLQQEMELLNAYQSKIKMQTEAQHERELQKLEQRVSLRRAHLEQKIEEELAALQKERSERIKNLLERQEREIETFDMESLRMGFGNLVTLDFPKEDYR
Sequence of Mitogen-activated protein kinase 10 ; MAPK10 ; P53779 (P53779 whole entry): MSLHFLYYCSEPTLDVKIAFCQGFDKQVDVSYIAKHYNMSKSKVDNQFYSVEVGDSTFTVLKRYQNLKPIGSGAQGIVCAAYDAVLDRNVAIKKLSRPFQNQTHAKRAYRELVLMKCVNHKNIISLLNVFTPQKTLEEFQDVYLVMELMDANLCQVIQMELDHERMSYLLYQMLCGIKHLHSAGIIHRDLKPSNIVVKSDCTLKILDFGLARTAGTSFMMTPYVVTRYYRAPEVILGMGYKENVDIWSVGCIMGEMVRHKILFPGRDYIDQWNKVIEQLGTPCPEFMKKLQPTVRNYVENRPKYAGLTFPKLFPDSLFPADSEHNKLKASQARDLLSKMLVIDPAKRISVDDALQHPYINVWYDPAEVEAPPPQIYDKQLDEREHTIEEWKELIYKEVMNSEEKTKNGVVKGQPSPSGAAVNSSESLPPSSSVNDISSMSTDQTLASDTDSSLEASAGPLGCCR

Regarding `COc1cc(F)ccc1-c1cc(Nc2cc(CS(C)(=N)=O)ccn2)ncc1F` (stereo not shown) [BAY-1251152], the remaining activity at 10 µM in test [1] (setting [15]) is 109%; in test [2] (setting [15]), 129%; in test [3] (setting [15]), 105%; in [4] (setting [15]) it was 41.7%; in test [5] (setting [15]), 142%; in [6] (setting [15]) it was 106%. Moreover, the remaining activity at 10 µM worked out at 100% in [7] (setting [15]); 114% in [8] (setting [15]); 84% in test [9] (setting [15]); 108% in [10] (setting [15]); 131% in [11] (setting [15]); 108% in test [12] (setting [15]). The remaining activity at 10 µM in test [13] (setting [15]) stood at 81%; in test [14] (setting [15]), 94.2%.
Turning to `COc1cc(F)ccc1-c1ncnc(Nc2cccc(C[S@](C)(=N)=O)c2)n1` [BAY-1143572], the remaining activity at 10 µM turned out to be 114% in [1] (setting [16]); 119% in test [2] (setting [16]); 110% in [3] (setting [16]); 105% in test [4] (setting [16]); 106% in [5] (setting [16]); 116% in [6] (setting [16]). For the same compound, the remaining activity at 10 µM in test [7] (setting [16]) was 96.6%; in [8] (setting [16]), 104%; in test [9] (setting [16]), 111%; in [10] (setting [16]), 119%; in test [11] (setting [16]), 142%; in test [12] (setting [16]) it was 90.7%. Also, the results for the remaining activity at 10 µM in test [13] (setting [16]) and in test [14] (setting [16]) were 105% and 108%, respectively.
